Each block holds one compound with its values, some of them ahead of it.
Test: solvent given as SMILES

- absorption maximum (in C1COCCO1): 454 nm
Compound: COC(=O)c1ccc(/C=C2\C=C(c3ccc(OC)c(OC)c3)NC2=O)cc1

Compound: CC(=O)c1nc(-c2ccc(N(c3ccccc3)c3ccccc3)cc2)oc1C
- absorption maximum (in CC#N): 332 nm
- absorption maximum (in CCCCCC): 324 nm
- absorption maximum (in CCO): 333 nm
- absorption maximum (in CCOC(C)=O): 326 nm
- absorption maximum (in CCOCC): 326 nm
- absorption maximum (in ClCCl): 328 nm

- absorption maximum (in CCO): 391 nm
- absorption maximum (in ClCCl): 394 nm
Compound: N#Cc1cnc(-c2c3ccccc3c(-c3ncc(C#N)cn3)c3ccccc23)nc1

- absorption maximum (in ClCCl): 590 nm
Compound: CCCCCCOc1ccc(N(c2ccc(OCCCCCC)cc2)c2ccc(-c3sc(-c4ccc(N(c5ccc(OCCCCCC)cc5)c5ccc(OCCCCCC)cc5)cc4)c4nc(-c5ccc(OC)cc5)c(-c5ccc(OC)cc5)nc34)cc2)cc1

Compound: CCN(CC)c1ccc2cc(/C=C/c3cccc[n+]3CCCS(=O)(=O)[O-])c(=O)oc2c1
- absorption maximum (in C1CCOC1): 513 nm
- absorption maximum (in CC#N): 486 nm
- absorption maximum (in CC(C)=O): 530 nm
- absorption maximum (in CS(C)=O): 494 nm
- absorption maximum (in Cc1ccccc1): 487 nm
- absorption maximum (in O): 481 nm
- absorption maximum (in OCC(O)CO): 496 nm

- absorption maximum (in ClCCl): 337 nm
Compound: CCOC(=O)c1c(-c2cc3ccc(OC)cc3oc2=O)nn(-c2ccccc2)c1C(=O)OCC

- absorption maximum (in CC#N): 334 nm
Compound: COC(=O)c1c(NC(C)(C)C)oc(-c2ccccc2)c1C(=O)OC

- absorption maximum (in ClCCl): 430 nm
Compound: CCCCCCc1cc2c3c(c1)c(=C1c4ccccc4Sc4ccccc41)c1cc(CCCCCC)cc4c1N3c1c(cc(CCCCCC)cc1c4=C1c3ccccc3Sc3ccccc31)c2=C1c2ccccc2Sc2ccccc21

Compound: CCC1=C(C)C2=Cc3c4ccccc4c4n3[B-](c3ccccc3)(Oc3ccccc3-4)[N+]2=C1C (configuration not stated)
- absorption maximum (in CC#N): 621 nm
- absorption maximum (in CCCCCC): 625 nm
- absorption maximum (in Cc1ccccc1): 629 nm
- absorption maximum (in ClCCl): 627 nm

- absorption maximum (in C1CCCCC1): 325 nm
Compound: C#Cc1ccc(C#Cc2cnc(C#Cc3ccccc3)nc2)cc1

- absorption maximum (in ClC(Cl)Cl): 355 nm
Compound: Cc1ccccc1Oc1ccc2c3c(cccc13)C(=O)N(CCO)C2=O

- absorption maximum (in ClCCl): 416 nm
Compound: CCCCN(CCCC)c1ccc(C#Cc2cc(C#Cc3ccc(C#N)cc3)c(C#Cc3ccc(C#N)cc3)cc2C#Cc2ccc(N(CCCC)CCCC)cc2)cc1

Compound: c1ccc2c(-n3cnc4ccccc43)cccc2c1
- absorption maximum (in C1CCCCC1): 283 nm
- absorption maximum (in C1CCOC1): 282 nm
- absorption maximum (in CC#N): 286 nm
- absorption maximum (in CCO): 284 nm
- absorption maximum (in CCOC(C)=O): 283 nm
- absorption maximum (in CCOCC): 284 nm
- absorption maximum (in CO): 284 nm
- absorption maximum (in Cc1ccccc1): 282 nm
- absorption maximum (in ClC(Cl)Cl): 285 nm

Compound: N#C/C(=C\c1cn(-c2ccccc2)nc1-c1ccccc1)c1nc2ccccc2s1
- absorption maximum (in C1CCOC1): 381 nm
- absorption maximum (in C1COCCO1): 381 nm
- absorption maximum (in CCO): 380 nm
- absorption maximum (in CCOC(C)=O): 380 nm
- absorption maximum (in CN(C)C=O): 388 nm
- absorption maximum (in CO): 377 nm
- absorption maximum (in CS(C)=O): 382 nm
- absorption maximum (in Cc1ccccc1): 387 nm
- absorption maximum (in ClC(Cl)Cl): 383 nm
- absorption maximum (in ClCCl): 380 nm

Compound: COC(=O)C1=NNC(C(=O)OC)=C2c3ccccc3C(=O)c3ccccc3C12 (configuration not stated)
- absorption maximum (in CC#N): 391 nm

- absorption maximum (in ClCCl): 704 nm
Compound: N#Cc1ccc(/C2=C3N=C(C(c4ccccc4)=C/3c3ccccc3)/C(c3ccc(C#N)cc3)=c3\[nH]/c(c(-c4ccccc4)c3-c3ccccc3)=C(/c3ccc(C#N)cc3)C3=N/C(=C(/c4ccc(C#N)cc4)c4[nH]c2c(-c2ccccc2)c4-c2ccccc2)C(c2ccccc2)=C3c2ccccc2)cc1

Compound: COc1ccc(N(c2ccccc2)c2cc3ccc4cc(N(c5ccccc5)c5ccc(OC)cc5)cc5ccc(c2)c3c45)cc1
- absorption maximum (in Cc1ccccc1): 453 nm

- absorption maximum (in ClC(Cl)Cl): 629 nm
Compound: Cc1cc(C)c(C2=C3C=CC=[N+]3[B-]3(F)Oc4cc(O)cc5c6ccc(C)cc6c6cc2n3c6c45)c(C)c1 (configuration not stated)

Compound: CCCC1=Cc2nc1ccc1[nH]c(cc1CCC)c1nc(c(NC(C)=O)cc3[nH]c2cc3CCC)C(CCC)=C1
- absorption maximum (in Cc1ccccc1): 639 nm

- absorption maximum (in ClCCl): 370 nm
Compound: CCOC(=O)/N=c1/oc2cc(OC)ccc2cc1C#N

Compound: C1=[N+](c2ccccc2)[B-](c2ccccc2)(c2ccccc2)Oc2c1ccc1c3c(ccc21)C=[N+](c1ccccc1)[B-](c1ccccc1)(c1ccccc1)O3
- absorption maximum (in Cc1ccccc1): 536 nm
- absorption maximum (in ClCCl): 529 nm

- absorption maximum (in CC#N): 355 nm
- absorption maximum (in CCCCCC): 359 nm
- absorption maximum (in CO): 346 nm
- absorption maximum (in CS(C)=O): 366 nm
- absorption maximum (in ClC(Cl)Cl): 353 nm
Compound: C/C(=N\Nc1ccc(C#N)cc1)c1cccc(/C(C)=N/Nc2ccc(C#N)cc2)c1

- absorption maximum (in C1CCOC1): 437 nm
Compound: c1ccc2c(P(c3c4ccccc4cc4ccccc34)c3c4ccccc4cc4ccccc34)c3ccccc3cc2c1

- absorption maximum (in C1CCOC1): 308 nm
Compound: Cc1ccc(-c2ccc(-c3ccc(-c4ccc(-c5ccc(C)cc5)cc4)c(/C(=C(/c4ccccc4)c4cc(-c5ccc(-c6ccc(C)cc6)cc5)ccc4-c4ccc(-c5ccc(C)cc5)cc4)c4ccccc4)c3)cc2)cc1

Compound: CCCCCCCCCCCCCCCCCCN1C(=O)c2cccc3c(OCCN(C)C)ccc(c23)C1=O
- absorption maximum (in CC#N): 363 nm
- absorption maximum (in CC(C)=O): 362 nm
- absorption maximum (in CCO): 362 nm
- absorption maximum (in CCOC(C)=O): 363 nm
- absorption maximum (in CCOCC): 359 nm
- absorption maximum (in CN(C)C=O): 364 nm
- absorption maximum (in ClCCl): 363 nm

- absorption maximum (in ClC(Cl)Cl): 507 nm
Compound: CC1=CC(C)=[N+]2C1=C(c1ccc(I)cc1)c1c(C)cc(C)n1[B-]21OCCO1

- absorption maximum (in C1CCCCC1): 484 nm
- absorption maximum (in CC#N): 510 nm
- absorption maximum (in CCO): 509 nm
- absorption maximum (in c1ccccc1): 507 nm
Compound: CN(C)c1ccc2c(c1)C(=O)c1ccccc1-2

- absorption maximum (in ClCCl): 371 nm
Compound: CC(=O)c1c(N[C@H](C(=O)O)C(C)C)c2ccc(N(C)C)cc2oc1=O

- absorption maximum (in ClCCl): 386 nm
Compound: COc1ccc(C#Cc2c(C#Cc3ccc(OC)cc3)c(C#Cc3ccc(OC)cc3)c(C#Cc3ccc(OC)cc3)c(C#Cc3ccc(OC)cc3)c2C#Cc2ccc(OC)cc2)cc1

- absorption maximum (in CO): 563 nm
Compound: C#CCOc1ccc(/C=C/C2=[N+]3C(=C(c4ccccc4)c4c(C)cc(C)n4[B-]3(F)F)C(C)=C2)cc1

- absorption maximum (in CCO): 481 nm
Compound: CN1C(=CC2=C([O-])C(=O)C2=C(C#N)C#N)Sc2ccccc21

- absorption maximum (in ClCCl): 571 nm
Compound: CCCCN1C(=O)C2=C(c3ccc(Br)cc3)[N-]C(=O)C2=C1c1ccc(Br)cc1

- absorption maximum (in ClC(Cl)Cl): 353 nm
Compound: CC(=O)OCCN1C(=O)c2cccc3c(Oc4ccc(C=O)cc4)ccc(c23)C1=O

Compound: CC1(C)c2ccccc2N(c2ccc(-c3n[n+]4c(o3)-c3ccccc3O[B-]4(F)F)cc2)c2ccccc21
- absorption maximum (in C1COCCO1): 361 nm
- absorption maximum (in CC(C)=O): 360 nm
- absorption maximum (in CCN(CC)CC): 362 nm
- absorption maximum (in CCO): 361 nm
- absorption maximum (in CCOC(C)=O): 361 nm
- absorption maximum (in CS(C)=O): 362 nm
- absorption maximum (in Cc1ccccc1): 364 nm
- absorption maximum (in ClC(Cl)Cl): 367 nm
- absorption maximum (in ClCCCl): 362 nm
- absorption maximum (in ClCCl): 383 nm
- absorption maximum (in Clc1ccccc1): 369 nm

- absorption maximum (in ClCCl): 309 nm
Compound: CN(C)c1ccc(N2c3c(sc4ccccc34)Sc3sc4ccccc4c32)cc1

- absorption maximum (in CO): 768 nm
Compound: CC1(C)C(/C=C/C2=C(Oc3ccc(CCN=C=S)cc3Cl)C(=C/C=C3/N(CCCS(=O)(=O)[O-])c4ccccc4C3(C)C)/CCC2)=[N+](CCCS(=O)(=O)[O-])c2ccccc21

- absorption maximum (in ClCCl): 438 nm
Compound: CCCCN(CCCC)c1ccc(C#Cc2cc(C#Cc3ccc(N(CCCC)CCCC)cc3)c(C#Cc3c(F)c(F)c(F)c(F)c3F)cc2C#Cc2c(F)c(F)c(F)c(F)c2F)cc1

- absorption maximum (in CC#N): 593 nm
- absorption maximum (in CO): 591 nm
- absorption maximum (in ClCCl): 606 nm
- absorption maximum (in O): 587 nm
Compound: CN(C)c1ccc2c3c(c(=O)oc2c1)C=c1cc2c(cc1O3)=[N+](CCC(=O)O)CCC2

- absorption maximum (in ClCCl): 390 nm
Compound: Cc1c(C(=O)c2ccccc2Cl)c2ccc3cccc4c5cccc6ccc1c(c65)c2c34

- absorption maximum (in CC#N): 439 nm
Compound: Cc1cccc2nc3c(=O)n(C)c(=O)nc-3n(C)c12

- absorption maximum (in ClCCl): 639 nm
Compound: COc1c2ccccc2c(OC)c2c(C#C[Si](C(C)C)(C(C)C)C(C)C)c3cc4sccc4cc3c(C#C[Si](C(C)C)(C(C)C)C(C)C)c12

- absorption maximum (in ClC(Cl)Cl): 540 nm
Compound: C(#Cc1ccccc1)C(C#Cc1ccccc1)=c1c2ccccc2c(=C(C#Cc2ccccc2)C#Cc2ccccc2)c2ccccc12

Compound: FC(F)(F)c1ccc(-c2c3cccc4c5cccc6c(-c7ccc(C(F)(F)F)cc7)c7cccc8c9cccc2c9c(c34)c(c65)c78)cc1
- absorption maximum (in Cc1ccccc1): 683 nm

Compound: O=C1NC(=O)C(c2c[nH]c3ccccc23)=C1c1c[nH]c2ccccc12
- absorption maximum (in C1CCOC1): 450 nm
- absorption maximum (in CC#N): 446 nm
- absorption maximum (in CC(C)OC(C)C): 443 nm
- absorption maximum (in CCCCOCCCC): 445 nm
- absorption maximum (in CCO): 460 nm
- absorption maximum (in CCOC(C)=O): 445 nm
- absorption maximum (in CN(C)C=O): 454 nm
- absorption maximum (in Cc1ccccc1): 447 nm
- absorption maximum (in ClCCl): 448 nm

- absorption maximum (in CC#N): 306 nm
- absorption maximum (in CCCCCC): 304 nm
Compound: Cc1ccc(C)n1-c1ccc(N(C)C)cc1

- absorption maximum (in C1CCOC1): 360 nm
Compound: CC(C)(C)c1ccc(-c2c(-c3cccc(-n4c5ccccc5c5ccccc54)c3)c(C#N)c(-c3cccc(-n4c5ccccc5c5ccccc54)c3)c(-c3ccc(C(C)(C)C)cc3)c2-c2ccc(C(C)(C)C)cc2)cc1

- absorption maximum (in ClCCl): 448 nm
Compound: CCCCN(CCCC)c1ccc(C#Cc2cc(C#Cc3ccc([N+](=O)[O-])cc3)c(C#Cc3ccc(N(CCCC)CCCC)cc3)cc2C#Cc2ccc([N+](=O)[O-])cc2)cc1

- absorption maximum (in CCO): 373 nm
Compound: CC(C)(C)Nc1cc2sc3cc(NC(C)(C)C)c(F)cc3c(=O)c2cc1F

- absorption maximum (in CCO): 598 nm
- absorption maximum (in ClC(Cl)Cl): 610 nm
- absorption maximum (in O): 601 nm
Compound: CC[N+](CC)=c1ccc2c(-c3ccccc3C(=O)O)c3c(=O)oc4cc5c(cc4c3oc-2c1)CCCN5C

- absorption maximum (in ClCCl): 398 nm
Compound: C(=C\c1ccc(N(c2ccccc2)c2ccccc2)cc1)/c1ccc(-c2ccc(/C=C/c3ccc(N(c4ccccc4)c4ccccc4)cc3)cc2)cc1

- absorption maximum (in ClCCl): 542 nm
Compound: CCCN1c2ccc(C#CC3=C4C=CC=[N+]4[B-](F)(F)n4cccc43)cc2Sc2cc(C#CC3=C4C=CC=[N+]4[B-](F)(F)n4cccc43)ccc21

- absorption maximum (in ClCCl): 499 nm
Compound: CCCCNc1ccc2n1[B-](F)(F)[N+]1=CC(/C=C/C(=O)OC(C)(C)C)=CC1=C2c1c(C)cc(C)cc1C

From the Deep4Chem optical property database
